{"source": "patent US4374284A", "about": "“Antiulcer, antiinflammatory, and antiallergic agent comprising as the main ingredient olean-12-ene-3β, 30-diol which is devoid of side effects of glycyrrhetinic acid and a new process for preparation of olean-12-ene-3β, 30-diol” (Minophagen Pharmaceutical Company, priority 1980, dated 1983)", "key": {"[1]": {"target": "T1, Δ^4 -5β-reductase for aldosterone in rat liver (Rattus norvegicus, UniProt P31210)", "T1 construct": "centrifuged again at 105,000 g to obtain Δ^4 -5β-reductase as the supernatant; from tissue; host or cells: rat liver, 105,000 g supernatant (cytosol)", "T1 sequence (P31210 1-326)": "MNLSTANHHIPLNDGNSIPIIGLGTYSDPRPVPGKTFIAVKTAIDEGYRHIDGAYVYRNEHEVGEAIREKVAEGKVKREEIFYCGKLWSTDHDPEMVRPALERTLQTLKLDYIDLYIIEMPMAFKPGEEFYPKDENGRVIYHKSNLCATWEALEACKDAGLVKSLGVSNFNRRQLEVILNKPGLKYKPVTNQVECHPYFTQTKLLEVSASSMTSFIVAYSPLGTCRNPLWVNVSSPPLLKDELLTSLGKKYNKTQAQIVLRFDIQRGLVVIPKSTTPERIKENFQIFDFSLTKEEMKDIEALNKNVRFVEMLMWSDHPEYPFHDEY", "assay": "inhibitory action on Δ^4-5β-reductase for aldosterone", "type": "biochemical", "settings": "summary in words, liver reductase", "description": "(§1) In vitro experimental results regarding effects of glycyrrhetinic acid (II) and its modified compounds (III), (IV), and (I) on Δ^4 -5α and 5β-reductase for aldosterone in rat liver will be shown below.\n(§2) Assay for activity of Δ^4 -5α and 5β-reductase\n(§3) (1) Preparation of enzyme solutions\n(§4) Rat livers were perfused with saline and excised to prepare a 25% or 50% homogenate with a solution of 0.25 M sucrose and 1 mM EDTA. The homogenate was spun at 10,000 g for 20 minutes to separate supernatant, which was centrifuged again at 105,000 g to obtain Δ^4 -5β-reductase as the supernatant. The pellet was appropriately diluted with a solution of 0.25 M sucrose-1 mM EDTA to use as a 5α-reductase solution.\n(§5) (2) Conditions for incubation and assay\n(§6) 1 Aldosterone . . . 0.173 μM/0.05 ml ethanol solution\n(§7) 2 Glycyrrhetinic acid or its modified compounds . . . 0.173 μM/0.05 ml ethanol solution Control . . . 0.05 ml ethanol solution\n(§8) 5α-reductase solution 0.1 ml\n(§9) 5β-reductase solution 0.1 ml or 0.2 ml\n(§10) 5 Phosphate buffer (0.1 M, pH 7.2) 1 ml\n(§11) The components 1 , 2 , 3 , 4 , 5 , and 6 mentioned above were mixed to bring the total volume up to 2.5 ml. The mixture was incubated at 37° C. for 20 minutes. Before the incubation, however, 1 ml aliquot was removed from 2.5 ml of the mixture mentioned above and extracted with 5 ml of methylene dichloride. After the incubation, the remaining 1.5 ml was extracted with 5 ml of methylene dichloride. The optical density of the two methylene dichloride solutions prepared before and after the incubation was measured by a spectrophotometer (Hitachi) at 240 mμ. Inhibition % of Δ^4 -5α and 5β-reductase activity was calculated from the difference in the optical density."}, "[2]": {"tested_on": "Δ^4 -5β-reductase for aldosterone in rat liver", "assay": "inhibitory action on Δ^4-5β-reductase for aldosterone", "type": "biochemical", "settings": "conclusion from reductase experiments", "description": "as §1, §2, §3, §4, §5, §6, §7, §8, §9, §10, §11"}, "stress-induced ulcer": {"tested_on": "stress-induced ulcer", "assay": "mice experiments on stress-induced ulcer (restraint plus water immersion)", "type": "in vivo, male ddY mice", "settings": "for ulcer index: 200 mg/kg p.o.", "description": "(a) Mice Experiments on stress-induced ulcer Experimental procedures:\nMale ddY mice weighing about 20 g were made to fast for 18 hours. Water was given freely. Compounds to be tested were suspended in Tween 80 to prepare an aqueous suspension and administered orally. Immediately thereafter, the mice were subjected to restraint plus water immersion stress (25° C.) for 6 hours. Thereafter, the stomach was excised and fixed by formalin. The degree of ulcer was shown as a total of the length. The control group was given only the solvent."}, "aspirin-induced ulcer": {"tested_on": "aspirin-induced ulcer", "assay": "rat experiment on aspirin-induced ulcer, pylorus ligated (experiment a)", "type": "in vivo, male Wister rats", "description": "(b) Rat experiment on aspirin-induced ulcer\n(a) Experimental procedures:\nMale Wister rats weighing about 220 g were made to fast for 24 hours. Water was given freely. The rats were laparotomized under anesthesia with ether. The stomach was drawn out and ligated at the pylorus. Immediately thereafter, 1% CMC suspension of aspirin was administered orally in a dose of 100 mg/kg/5 ml. Aqueous suspensions of compounds to be tested were prepared in the same manner as in the experiment (a) and administered intraduodenally at the same time. The wound was closed and the rats were set free. After 7 hours, the stomach was excised and ulcer was measured in the same manner as in the experiment (a)."}, "[3]": {"tested_on": "rat paw edema induced with carrageenin", "assay": "test on rat paw edema induced with carrageenin (antiinflammatory)", "type": "in vivo, male Wister rats", "description": "(a) Test on rat paw induced with carrageenin\nTo the plantar side of the hind paw of male Wister rats was administered subcutaneously 0.05 ml/rat of 10% saline solution of carrageenin. Edema after three hours was measured by the volume method and the rate of inhibition was assayed. Compounds were administered orally 30 minutes before administration of carrageenin. [formula]"}, "[4]": {"tested_on": "writhing induced by acetic acid", "assay": "effect on writhing induced by acetic acid (analgesic action)", "type": "in vivo, male ddY mice", "settings": "for number of writhing: counted for 10 minutes, control 24.9 ± 1.6, ** p < 0.01", "description": "(b) Effect on writhing induced by acetic acid (analgesic action)\nThe present compound olean-12-ene-3β, 30-diol (I) was administered orally to male ddY mice weighing 25-27 g. After 30 minutes, saline containing 0.7% acetic acid was administered intraperitoneally. The number of writhings of the mice was counted for 10 minutes from, 10 min. of the administration. Aspirin was used as the reference."}, "[5]": {"tested_on": "Arthus phenomenon (type III allergy)", "assay": "Arthus phenomenon test (type III allergy)", "type": "in vivo, female guinea pig", "description": "(b) Arthus phenomenon test (type III allergy)\nTo the back part of female guinea pig weighing 250-300 g, 10 mg/kg of egg albumin was administered subcutaneously. After 21 days, 2 mg/kg of egg albumin was administered intravenously, whereby death of the guinea pig due to anaphylactic shock was recognized to confirm establishment of sensitization. Thirty minutes after compounds to be tested were administered intraperitoneally, 0, 10, 100, 1000 μg/0.1 ml of egg albumin were each administered to the abdominal part which had been shaved."}}, "note": "Entries after “also recorded” stand apart in the source; their conditions may differ.", "data": [{"smiles": "CC1(C)[C@@H](O)CC[C@]2(C)[C@H]3CC=C4[C@@H]5C[C@@](C)(CO)CC[C@]5(C)CC[C@@]4(C)[C@]3(C)CC[C@@H]12", "note": "[I, olean-12-ene-3β, 30-diol]", "values": [{"measurement": "effect upon Δ^4 -5α-5β-reductase (in words), 5β", "setting": "[1]", "result": "no inhibitory activity"}, {"measurement": "aldosterone-like action (in words)", "setting": "[2]", "result": "entirely devoid of aldosterone-like action"}, {"measurement": "inhibitory effect on stress-induced ulcer (in words)", "setting": "stress-induced ulcer; 200 mg/kg", "result": "showed a stronger inhibitory effect than glycyrrhetinic acid (II)"}, {"measurement": "ulcer index", "setting": "stress-induced ulcer; 1st experiment, control 5.63 ± 0.55", "result": "2.94 ± 0.81"}, {"measurement": "ulcer index", "setting": "stress-induced ulcer; 2nd experiment, control 4.13 ± 0.8", "result": "2.19 ± 0.6"}, {"measurement": "ulcer index", "setting": "stress-induced ulcer; 3rd experiment, control 6.00 ± 0.87", "result": "3.88 ± 0.79"}, {"measurement": "ulcer index", "setting": "stress-induced ulcer; 4th experiment, control 4.20 ± 0.70", "result": "1.89 ± 0.53"}, {"measurement": "antiulcer effect compared with glycyrrhetinic acid (in words)", "setting": "stress-induced ulcer; all antiulcer experiments (stress, aspirin, acetic acid)", "result": "shows superior effects to glycyrrhetinic acid in all the experiments"}, {"measurement": "ulcer index", "setting": "aspirin-induced ulcer; 320 mg/kg (head p.o.; text intraduodenally), aspirin 100 mg/kg, after 7 hours, control 14.1 ± 3.14", "result": "6.2 ± 2.37"}, {"measurement": "inhibitory effect on aspirin-induced ulcer, experiment (a) (in words)", "setting": "aspirin-induced ulcer; rat, in vivo", "result": "showed an inhibitory effect"}, {"measurement": "edema %", "setting": "[3]; 200 mg/kg p.o., after three hours, control 71 ± 6", "result": "52 ± 5", "unit": "%"}, {"measurement": "inhibition at 200 mg/kg", "setting": "[3]; Rattus norvegicus, po, 3 h, edema, 200 mg/kg p.o., after three hours", "result": 26.8, "unit": "%"}, {"measurement": "inhibitory activity against inflammation (in words)", "setting": "[3]; rat, in vivo", "result": "has an inhibitory activity against inflammation, but the activity is inferior to that of aspirin; also recorded: will not affect the inhibitory activity of aspirin"}, {"measurement": "number of writhing", "setting": "[4]; 100 mg/kg p.o.", "result": "15.5 ± 2.8"}, {"measurement": "number of writhing", "setting": "[4]; 200 mg/kg p.o.", "result": "11.1 ± 1.6"}, {"measurement": "number of writhing", "setting": "[4]; 400 mg/kg p.o.", "result": "8.0 ± 1.7"}, {"measurement": "effect on writhing (in words)", "setting": "[4]; increasing doses", "result": "significantly decrease the number of writhing; also recorded: a little stronger than that of (II), but not so perfect as aspirin"}, {"measurement": "area", "setting": "[5]; egg albumin 10 μg/0.1 ml, 100 mg/kg intraperitoneally, control 0", "result": 0, "unit": "mm^2"}, {"measurement": "area", "setting": "[5]; egg albumin 10 μg/0.1 ml, 200 mg/kg intraperitoneally, control 0", "result": 0, "unit": "mm^2"}, {"measurement": "area", "setting": "[5]; egg albumin 100 μg/0.1 ml, 100 mg/kg intraperitoneally, control 110 ± 67", "result": "98 ± 98", "unit": "mm^2"}, {"measurement": "area", "setting": "[5]; egg albumin 100 μg/0.1 ml, 200 mg/kg intraperitoneally, control 110 ± 67", "result": "30 ± 30", "unit": "mm^2"}, {"measurement": "area", "setting": "[5]; egg albumin 1000 μg/0.1 ml, 100 mg/kg intraperitoneally, control 409 ± 130", "result": "334 ± 174", "unit": "mm^2"}, {"measurement": "area", "setting": "[5]; egg albumin 1000 μg/0.1 ml, 200 mg/kg intraperitoneally, control 409 ± 130", "result": "76 ± 62", "unit": "mm^2"}]}]}
